Measurements taken from patent US20200253978A1, “HETEROCYCLICS AS INHIBITORS OF FIBROBLAST GROWTH FACTOR RECEPTOR” (ADVENT PHARMA CO. LTD., priority 2017, published 2020).

Assays:
[1] = molecular target: T1, BaF3 cells expressing Tel-FGFR-4 and luciferase (Homo sapiens, UniProt P22455); assay: BaF3 cellular growth inhibition assay, Tel-FGFR-4 and luciferase (Bright-Glo); assay type: cell-based; settings: BaF3 Tel-FGFR-4 cells, 2 days incubation, 50% growth inhibition vs DMSO
T1 construct: Luciferase is co-expressed as a viability reporter and is not part of the key; P41212 (Transcription factor ETV6)
T1 sequence (P22455 467-755 limits assumed): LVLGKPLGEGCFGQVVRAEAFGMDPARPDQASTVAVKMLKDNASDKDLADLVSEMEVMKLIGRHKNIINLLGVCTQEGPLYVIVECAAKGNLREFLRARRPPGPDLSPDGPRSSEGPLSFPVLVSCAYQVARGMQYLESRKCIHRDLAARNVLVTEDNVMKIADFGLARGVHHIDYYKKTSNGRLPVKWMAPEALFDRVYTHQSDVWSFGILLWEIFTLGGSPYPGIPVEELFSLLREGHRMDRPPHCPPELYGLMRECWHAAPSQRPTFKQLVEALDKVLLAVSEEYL
Description: (§1) Compounds' inhibitory activities against FGFR-4 or FGFR-1 were measured in BaF3 cells expressing Tel-FGFR-4 and luciferase or Tel-FGFR-1 and luciferase, whose growth was dependent on FGFR-4 or FGFR-1 kinase but independent of IL-3. The cells were plated in 384-well plates in RPMI1640 with 10% FBS. Compounds were added as 11-point dilutions. Cell viability was determined by Bright-Glo luciferase assay (Promega) after cells were incubated with compounds for 2 days. The IC50 value was determined as the concentration for 50% growth inhibition compared to DMSO treated cells (A: IC50<0.1 μM; B: IC50 between 0.1 μM and 1 μM; C: IC50 between 1 μM and 10 μM).

[2] = molecular target: T2, BaF3 cells expressing Tel-FGFR-1 and luciferase (Homo sapiens, UniProt P11362); assay: BaF3 cellular growth inhibition assay, Tel-FGFR-1 and luciferase (Bright-Glo); assay type: cell-based; settings: BaF3 Tel-FGFR-1 cells, 2 days incubation, 50% growth inhibition vs DMSO
T2 construct: Luciferase is co-expressed as a viability reporter and is not part of the key; P41212 (Transcription factor ETV6)
T2 sequence (P11362 478-767 limits assumed): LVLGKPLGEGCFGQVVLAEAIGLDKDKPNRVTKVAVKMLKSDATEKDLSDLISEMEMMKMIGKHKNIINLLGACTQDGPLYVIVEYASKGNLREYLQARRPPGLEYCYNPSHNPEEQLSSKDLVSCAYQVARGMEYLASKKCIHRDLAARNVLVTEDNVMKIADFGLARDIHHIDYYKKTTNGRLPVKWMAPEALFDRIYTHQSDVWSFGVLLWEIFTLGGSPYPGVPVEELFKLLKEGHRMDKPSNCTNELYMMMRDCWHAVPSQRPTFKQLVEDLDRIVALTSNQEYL
Description: as §1

Row | IC50 [1] [nM] | IC50 ([2]; numeric bounds) [nM] | IC50 ([2]; class symbols) [nM] | SMILES
1 | 100 to 1000 | > 3300 | – | C=CC(=O)Nc1cc(N2CCN(CC)CC2)ccc1Nc1cc2cc(C(=O)c3c(F)c(OC)cc(OC)c3F)[nH]c2cn1 [Example 21, N-(2-((2-(2,6-difluoro-3,5-dimethoxybenzoyl)-1H-pyrrolo[2,3-c]pyridin-5-yl)amino)-5-(4-ethylpiperazin-1-yl)phenyl)acrylamide]
2 | 100 to 1000 | – | 1000 to 10000 | C=CC(=O)Nc1cc(N2CCN(CC)CC2)ccc1Nc1cc2c(C(=O)c3c(F)c(OC)cc(OC)c3F)c[nH]c2cn1 [Example 22, N-(2-((3-(2,6-difluoro-3,5-dimethoxybenzoyl)-1H-pyrrolo[2,3-c]pyridin-5-yl)amino)-5-(4-ethylpiperazin-1-yl)phenyl)acrylamide]
3 | < 100 | > 6650 | – | C=CC(=O)Nc1cccc(C)c1Nc1ncc2oc(C(=O)c3c(F)c(OC)cc(OC)c3F)cc2n1 [Example 23, N-(2-((6-(2,6-difluoro-3,5-dimethoxybenzoyl)furo[3,2-d]pyrimidin-2-yl)amino)-3-methylphenyl)acrylamide]
4 | < 100 | > 6650 | – | C=CC(=O)Nc1cccc(C)c1Nc1cc2cc(C(=O)c3c(F)c(OC)cc(OC)c3F)sc2cn1 [Example 24, N-(2-((2-(2,6-difluoro-3,5-dimethoxybenzoyl)thieno[2,3-c]pyridin-5-yl)amino)-3-methylphenyl)acrylamide]
5 | 100 to 1000 | > 3300 | – | C=CC(=O)Nc1cccc(C(F)(F)F)c1Nc1cc2cc(C(=O)c3c(F)c(OC)cc(OC)c3F)oc2cn1 [Example 25, N-(2-((2-(2,6-difluoro-3,5-dimethoxybenzoyl)furo[2,3-c]pyridin-5-yl)amino)-3-(trifluoromethyl)phenyl)acrylamide]
6 | < 100 | > 5100 | – | C=CC(=O)Nc1cccc(Cl)c1Nc1cc2cc(C(=O)c3c(F)c(OC)cc(OC)c3F)oc2cn1 [Example 26, N-(3-chloro-2-((2-(2,6-difluoro-3,5-dimethoxybenzoyl)furo[2,3-c]pyridin-5-yl)amino)phenyl)acrylamide]
7 | 100 to 1000 | > 3300 | – | C=CC(=O)Nc1cc(N2CCN(CC)CC2)ccc1Nc1cc2cc(C(=O)Nc3c(F)c(OC)cc(OC)c3F)oc2cn1 [Example 32, 5-((2-acrylamido-4-(4-ethylpiperazin-1-yl)phenyl)amino)-N-(2,6-difluoro-3,5-dimethoxyphenyl)furo[2,3-c]pyridine-2-carboxamide]
8 | < 100 | > 3300 | – | CCN1CCN(c2ccc(Nc3cc4cc(C(=O)c5c(F)c(OC)cc(OC)c5F)oc4cn3)c(NC(=O)/C=C\Cl)c2)CC1 [Example 33, (Z)-3-chloro-N-(2-((2-(2,6-difluoro-3,5-dimethoxybenzoyl)furo[2,3-c]pyridin-5-yl)amino)-5-(4-ethylpiperazin-1-yl)phenyl)acrylamide]
9 | 1000 to 10000 | > 10000 | – | C=CC(=O)N[C@H]1CCOC[C@H]1Nc1ncc2oc(C(O)c3c(F)c(OC)cc(OC)c3F)cc2n1 (stereo partly drawn) [Example 34, N-((3S,4S)-3-((6-((2,6-difluoro-3,5-dimethoxyphenyl)(hydroxy)methyl)furo[3,2-d]pyrimidin-2-yl)amino)tetrahydro-2H-pyran-4-yl)acrylamide]
10 | < 100 | > 10000 | – | C=CC(=O)N[C@H]1CCOC[C@H]1Nc1ncc2oc(C(=O)c3c(F)c(OC)cc(OC)c3F)cc2n1 [Example 35, N-((3S,4S)-3-((6-(2,6-difluoro-3,5-dimethoxybenzoyl)furo[3,2-d]pyrimidin-2-yl)amino)tetrahydro-2H-pyran-4-yl)acrylamide]
11 | 1000 to 10000 | > 10000 | – | C=CC(=O)Nc1cc(N2CCN(CC)CC2)ccc1Nc1cc2c(O)c(C(=O)c3c(F)c(OC)cc(OC)c3F)oc2cn1 [Example 36, N-(2-((2-(2,6-difluoro-3,5-dimethoxybenzoyl)-3-hydroxyfuro[2,3-c]pyridin-5-yl)amino)-5-(4-ethylpiperazin-1-yl)phenyl)acrylamide]
12 | 100 to 1000 | > 10000 | – | C=CC(=O)N[C@H]1CCOC[C@H]1Nc1cc2cc(-c3c(Cl)c(OC)cc(OC)c3Cl)oc2cn1 [Example 37, N-((3S,4S)-3-((2-(2,6-dichloro-3,5-dimethoxyphenyl)furo[2,3-c]pyridin-5-yl)amino)tetrahydro-2H-pyran-4-yl)acrylamide]
